Test results published in the NIST ThermoML archive (doi:10.1016/j.jct.2014.10.021).

Assay: mn = molality of the nth substance listed, in mol/kg
Conditions: 298.15 K, 101.33 kPa, Liquid, Alternating current cell with electrodes

CCCC[N+]1(C)CCCC1.O=S(=O)([O-])C(F)(F)C(F)(F)C(F)(F)C(F)(F)F [1-butyl-1-methylpyrrolidinium perfluorobutanesulfonate] + O
Conditions	electrical conductivity [S/m]
m1 = 0.004597	0.0233
m1 = 0.005016	0.0254
m1 = 0.005639	0.0279
m1 = 0.006033	0.0293
m1 = 0.006491	0.0311
m1 = 0.007025	0.0343
m1 = 0.007655	0.0363
m1 = 0.008405	0.0397
m1 = 0.00933	0.0447
m1 = 0.0105	0.0483
m1 = 0.012	0.0554
m1 = 0.01274	0.0584
m1 = 0.01401	0.0642
m1 = 0.01533	0.0697
m1 = 0.01608	0.0731
m1 = 0.01691	0.0769
m1 = 0.01784	0.0804

CCCC[N+](CCCC)(CCCC)CCCC.O=S(=O)([O-])C(F)(F)C(F)(F)C(F)(F)C(F)(F)F [tetrabutylammonium perfluorobutanesulfonate] + O
Conditions	electrical conductivity [S/m]
m1 = 0.002247	0.0136
m1 = 0.002283	0.0138
m1 = 0.002308	0.0139
m1 = 0.002329	0.014
m1 = 0.002356	0.0142
m1 = 0.002375	0.0143
m1 = 0.002407	0.0145
m1 = 0.002447	0.0147
m1 = 0.002477	0.0148
m1 = 0.002494	0.0149
m1 = 0.002516	0.015
m1 = 0.002534	0.0151

CCCCCC[n+]1ccn(C)c1.O=S(=O)([O-])C(F)(F)C(F)(F)C(F)(F)C(F)(F)F [1-methyl-3-hexylimidazolium perfluorobutanesulfonate] + O
Conditions	electrical conductivity [S/m]
m1 = 0.0006843	0.0038
m1 = 0.001003	0.0055
m1 = 0.001271	0.0072
m1 = 0.001953	0.0108
m1 = 0.002415	0.0133
m1 = 0.002944	0.0163
m1 = 0.003168	0.0174
m1 = 0.00367	0.0201
m1 = 0.004364	0.0235
m1 = 0.004701	0.0252
m1 = 0.005473	0.0291
m1 = 0.006118	0.0323
m1 = 0.006443	0.0339
m1 = 0.007009	0.0367
m1 = 0.007312	0.0382
m1 = 0.007666	0.04
m1 = 0.007936	0.0413
m1 = 0.008317	0.0431
m1 = 0.008657	0.0448
m1 = 0.009459	0.0484
m1 = 0.009734	0.0497
m1 = 0.01004	0.051
m1 = 0.01032	0.0523
m1 = 0.01057	0.0535
m1 = 0.01151	0.0567
m1 = 0.01188	0.0581
m1 = 0.01244	0.0611
m1 = 0.01292	0.0624
m1 = 0.01353	0.0644
m1 = 0.01416	0.0668
m1 = 0.01452	0.069

CCCCCCCCCCCCn1cc[n+](C)c1.O=S(=O)([O-])C(F)(F)C(F)(F)C(F)(F)C(F)(F)F [1-dodecyl-3-methylimidazolium perfluorobutanesulfonate] + O
Conditions	electrical conductivity [S/m]
m1 = 1.598e-05	0.00011
m1 = 2.066e-05	0.00016
m1 = 2.421e-05	0.00018
m1 = 2.925e-05	0.00022
m1 = 3.682e-05	0.0003
m1 = 4.977e-05	0.00041
m1 = 5.764e-05	0.00048
m1 = 7.583e-05	0.00063
m1 = 8.783e-05	0.0007
m1 = 0.0001043	0.00085
m1 = 0.0001122	0.00089
m1 = 0.0001213	0.00095
m1 = 0.000132	0.00101
m1 = 0.0001448	0.00109
m1 = 0.0001603	0.00118
m1 = 0.0001796	0.00129
m1 = 0.0001903	0.00136

CCCCCCCCn1cc[n+](C)c1.O=S(=O)([O-])C(F)(F)C(F)(F)C(F)(F)C(F)(F)F [1-methyl-3-octylimidazolium perfluorobutanesulfonate] + O
Conditions	electrical conductivity [S/m]
m1 = 0.0003013	0.0016
m1 = 0.0007028	0.0037
m1 = 0.001019	0.0054
m1 = 0.001249	0.0069
m1 = 0.00155	0.008
m1 = 0.001919	0.0102
m1 = 0.0022	0.0117
m1 = 0.002596	0.0136
m1 = 0.002912	0.0145
m1 = 0.003181	0.0157
m1 = 0.003623	0.017
m1 = 0.003988	0.0176
m1 = 0.004309	0.0183
m1 = 0.004701	0.0192
m1 = 0.005065	0.0202
m1 = 0.005333	0.0206
m1 = 0.005728	0.0209
